According to patent US11987588B2, “Modulators of the beta-3 adrenergic receptor useful for the treatment or prevention of heart failure and disorders related thereto” (Arena Pharmaceuticals, Inc., priority 2017, dated 2024):

Target: Beta-3 Adrenergic Receptor (Homo sapiens (Human), UniProt P13945)
Assay: Homogeneous Time-Resolved Fluorescence (HTRF) cAMP antagonist assay, IC50 determination
Assay type: cell-based
Details: CHO-K1 cells stably expressing recombinant receptor, isoproterenol at EC90
Procedure, shortened: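 Antagonist mode: isoproterenol at its predetermined EC90 added after compound to recombinant CHO-K1 cells in IBMX-containing PBS, 1 h, room temperature. Compounds tested as 5-fold, 10-point dilutions, top final typically 10 or 100 μM. HTRF signal converted to cAMP via standard curve, giving IC50.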

Chain of Beta-3 Adrenergic Receptor (P13945 whole entry, species assumed): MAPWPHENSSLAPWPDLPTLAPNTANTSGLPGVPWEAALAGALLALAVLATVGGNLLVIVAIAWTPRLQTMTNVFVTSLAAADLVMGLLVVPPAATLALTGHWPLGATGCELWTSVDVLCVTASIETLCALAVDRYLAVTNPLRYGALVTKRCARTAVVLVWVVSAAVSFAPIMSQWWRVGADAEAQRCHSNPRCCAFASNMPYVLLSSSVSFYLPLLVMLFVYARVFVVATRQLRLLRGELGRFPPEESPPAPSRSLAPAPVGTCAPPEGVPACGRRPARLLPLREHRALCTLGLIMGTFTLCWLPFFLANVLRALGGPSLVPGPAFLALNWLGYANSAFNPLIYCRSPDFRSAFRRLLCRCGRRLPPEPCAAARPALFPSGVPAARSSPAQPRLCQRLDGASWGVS

Row | IC50 | Compound
1 | 30.9 nM | CNS(=O)(=O)c1cccc(OC[C@@H](O)CNC2COC3(CCN(S(=O)(=O)c4cccc(-c5ccc(CNCCOC)cc5)c4)CC3)C2)c1 (stereo partly drawn) [Compound 340, 3-((2S)-2-hydroxy-3-(8-(4′-((2-methoxyethylamino)methyl)biphenyl-3-ylsulfonyl)-1-oxa-8-azaspiro[4.5]decan-3-ylamino)propoxy)-N-methylbenzenesulfonamide]
2 | 10.6 nM | CNS(=O)(=O)c1cccc(OC[C@@H](O)CN[C@H]2COC3(CCN(S(=O)(=O)c4cnc5[nH]cc(C#N)c5c4)CC3)C2)c1 [Compound 493, 3-((S)-3-((R)-8-(3-cyano-1H-pyrrolo[2,3-b]pyridin-5-ylsulfonyl)-1-oxa-8-azaspiro[4.5]decan-3-ylamino)-2-hydroxypropoxy)-N-methylbenzenesulfonamide]
3 | 59.8 nM | CC(C)(C)NS(=O)(=O)c1cccc(OC[C@@H](O)CNC2COC3(CCN(S(=O)(=O)c4ccc5ccccc5c4)CC3)C2)c1 (stereo partly drawn) [Compound 94, N-tert-butyl-3-((2S)-2-hydroxy-3-(8-(naphthalen-2-ylsulfonyl)-1-oxa-8-azaspiro[4.5]decan-3-ylamino)propoxy)benzenesulfonamide]
4 | 107 nM | O=S(=O)(NCC(F)F)c1cccc(OC[C@@H](O)CNC2COC3(CCN(S(=O)(=O)c4ccc5ccccc5c4)CC3)C2)c1 (stereo partly drawn) [Compound 9, N-(2,2-difluoroethyl)-3-((2S)-2-hydroxy-3-(8-(naphthalen-2-ylsulfonyl)-1-oxa-8-azaspiro[4.5]decan-3-ylamino)propoxy)benzenesulfonamide]
5 | 15 nM | CCC(C)c1ccc(S(=O)(=O)N2CCC3(CC2)CC(NC[C@H](O)COc2cccc(S(=O)(=O)NC)c2)CO3)cc1 (stereo partly drawn) [Compound 22, 3-((2S)-3-(8-(4-sec-butylphenylsulfonyl)-1-oxa-8-azaspiro[4.5]decan-3-ylamino)-2-hydroxypropoxy)-N-methylbenzenesulfonamide]
6 | 9.62 nM | CNS(=O)(=O)c1cccc(OC[C@@H](O)CNC2COC3(CCN(S(=O)(=O)c4ccc(Cl)c(OC)c4)CC3)C2)c1 (stereo partly drawn) [Compound 206, 3-((2S)-3-(8-(4-chloro-3-methoxyphenylsulfonyl)-1-oxa-8-azaspiro[4.5]decan-3-ylamino)-2-hydroxypropoxy)-N-methylbenzenesulfonamide]
7 | 18.7 nM | CNS(=O)(=O)c1cccc(OC[C@@H](O)CNC2COC3(CCN(S(=O)(=O)c4cccc(C(F)(F)F)c4)CC3)C2)c1 (stereo partly drawn) [Compound 38, 3-((2S)-2-hydroxy-3-(8-(3-(trifluoromethyl)phenylsulfonyl)-1-oxa-8-azaspiro[4.5]decan-3-ylamino)propoxy)-N-methylbenzenesulfonamide]
8 | 176 nM | CNS(=O)(=O)c1cccc(OC[C@@H](O)CN[C@H]2COC3(CCN(S(=O)(=O)c4cnc5c(c4)CC(=O)N5)CC3)C2)c1 [Compound 514, 3-((S)-2-hydroxy-3-((R)-8-(2-oxo-2,3-dihydro-1H-pyrrolo[2,3-b]pyridin-5-ylsulfonyl)-1-oxa-8-azaspiro[4.5]decan-3-ylamino)propoxy)-N-methylbenzenesulfonamide]
9 | 25.6 nM | CNS(=O)(=O)c1cccc(OC[C@@H](O)CNC2COC3(CCN(S(=O)(=O)c4ccc(Cl)cc4Cl)CC3)C2)c1 (stereo partly drawn) [Compound 158, 3-((2S)-3-(8-(2,4-dichlorophenylsulfonyl)-1-oxa-8-azaspiro[4.5]decan-3-ylamino)-2-hydroxypropoxy)-N-methylbenzenesulfonamide]
10 | 12.2 nM | CNS(=O)(=O)c1cccc(OC[C@@H](O)CNC2COC3(CCN(S(=O)(=O)c4cc(Cl)ccc4F)CC3)C2)c1 (stereo partly drawn) [Compound 144, 3-((2S)-3-(8-(5-chloro-2-fluorophenylsulfonyl)-1-oxa-8-azaspiro[4.5]decan-3-ylamino)-2-hydroxypropoxy)-N-methylbenzenesulfonamide]
11 | 15.1 nM | CONS(=O)(=O)c1cccc(OC[C@@H](O)CNC2COC3(CCN(S(=O)(=O)c4ccc5ccccc5c4)CC3)C2)c1 (stereo partly drawn) [Compound 11, 3-((2S)-2-hydroxy-3-(8-(naphthalen-2-ylsulfonyl)-1-oxa-8-azaspiro[4.5]decan-3-ylamino)propoxy)-N-methoxybenzenesulfonamide]

The next lines start with the compound.

Row | Compound | IC50
12 | C[C@@H](O)CNS(=O)(=O)c1cccc(OC[C@@H](O)CN[C@H]2COC3(CCN(S(=O)(=O)c4cnc5c(c4)N(C)CCO5)CC3)C2)c1 [Compound 436, 3-((S)-2-hydroxy-3-((R)-8-(1-methyl-2,3-dihydro-1H-pyrido[2,3-b][1,4]oxazin-7-ylsulfonyl)-1-oxa-8-azaspiro[4.5]decan-3-ylamino)propoxy)-N—((R)-2-hydroxypropyl)benzenesulfonamide] | 367 nM
13 | CCOCCNS(=O)(=O)c1cccc(OC[C@@H](O)CNC2COC3(CCN(S(=O)(=O)c4ccc5ccccc5c4)CC3)C2)c1 (stereo partly drawn) [Compound 47, N-(2-ethoxyethyl)-3-((2S)-2-hydroxy-3-(8-(naphthalen-2-ylsulfonyl)-1-oxa-8-azaspiro[4.5]decan-3-ylamino)propoxy)benzenesulfonamide] | 155 nM
14 | O=S(=O)(NCCF)c1cccc(OC[C@@H](O)CN[C@H]2COC3(CCN(S(=O)(=O)c4cnc5ccccc5c4)CC3)C2)c1 [Compound 394, N-(2-fluoroethyl)-3-((S)-2-hydroxy-3-((R)-8-(quinolin-3-ylsulfonyl)-1-oxa-8-azaspiro[4.5]decan-3-ylamino)propoxy)benzenesulfonamide] | 46.9 nM
15 | COCCCNS(=O)(=O)c1cccc(OC[C@@H](O)CNC2COC3(CCN(S(=O)(=O)c4ccc5ccccc5c4)CC3)C2)c1 (stereo partly drawn) [Compound 75, 3-((2S)-2-hydroxy-3-(8-(naphthalen-2-ylsulfonyl)-1-oxa-8-azaspiro[4.5]decan-3-ylamino)propoxy)-N-(3-methoxypropyl)benzenesulfonamide] | 39.8 nM
16 | COCCNS(=O)(=O)c1cccc(OC[C@@H](O)CNC2COC3(CCN(S(=O)(=O)c4ccc5ccccc5c4)CC3)C2)c1 (stereo partly drawn) [Compound 13, 3-((2S)-2-hydroxy-3-(8-(naphthalen-2-ylsulfonyl)-1-oxa-8-azaspiro[4.5]decan-3-ylamino)propoxy)-N-(2-methoxyethyl)benzenesulfonamide] | 28.7 nM
17 | CNS(=O)(=O)c1cccc(OC[C@@H](O)CN[C@H]2COC3(CCN(c4cnccn4)CC3)C2)c1 [Compound 586, 3-((S)-2-hydroxy-3-((R)-8-(pyrazin-2-yl)-1-oxa-8-azaspiro[4.5]decan-3-ylamino)propoxy)-N-methylbenzenesulfonamide] | 762 nM
18 | CNS(=O)(=O)c1cccc(OC[C@@H](O)CN[C@@H]2COC3(CCN(S(=O)(=O)c4cccc(-c5ccc(CN)cc5)c4OC)CC3)C2)c1 [Compound 448, 3-((S)-3-((S)-8-(4′-(aminomethyl)-2-methoxybiphenyl-3-ylsulfonyl)-1-oxa-8-azaspiro[4.5]decan-3-ylamino)-2-hydroxypropoxy)-N-methylbenzenesulfonamide] | 32 nM
19 | CCOc1ccc(-c2ccc(CN)cc2)cc1S(=O)(=O)N1CCC2(CC1)C[C@H](NC[C@H](O)COc1cccc(S(=O)(=O)NC)c1)CO2 [Compound 419, 3-((S)-3-((S)-8-(4′-(aminomethyl)-4-ethoxybiphenyl-3-ylsulfonyl)-1-oxa-8-azaspiro[4.5]decan-3-ylamino)-2-hydroxypropoxy)-N-methylbenzenesulfonamide] | 9.69 nM
